The test system of data set [1] is LAB isolates from commercial ethanol plants (Lactobacillus, Lactococcus, Weissella, Leuconostoc, Pediococcus, Enterococcus, Streptococcus). Briefly: Inhibitory activity spectrum, culture supernatant spotted on indicator bacterial lawns (LAB isolates). The format is cell-based, lactic acid bacteria. The note with it: multiple genera. As to the method: (§1) In the discovery of the unique broad spectrum bacteriocin of this invention, indigenous LAB were isolated and purified from the fermentation mash of the commercial ethanol fermentation plants. The identities of the isolates were determined to the species level based on their 16s rDNA sequences. The capability of the isolated LAB strains to produce antimicrobial compounds was identified. Culture supernatants of the strains to be tested were spotted onto individual indicator bacterial culture lawns, which were prepared using a variety of LAB strains of different genera. After incubation, growth inhibition of the indicator bacteria was seen as a clear zone at and around the spotting position. Any positive activity of bacterial growth inhibition from the tested culture supernatant was confirmed again in the same manner, and the inhibitory activity spectrum of the antimicrobial compound is determined. […]
(§2) The inhibitory activity spectrum of GP15cin against different strains was determined. The active concentration range and the minimum inhibition concentration of the bacteriocin are determined using different indicator strains. The activity levels of the bacteriocin present in the raw bacterial culture supernatants and/or in partially purified mixtures were also determined. […]

The test system of data set [2] is non-LAB isolates (strains of Staphylococcus, Enterobacter, Bacillus, Clostridium). Briefly: Inhibitory activity spectrum, culture supernatant spotted on indicator bacterial lawns (non-LAB isolates). The format is cell-based. As for the experimental part: as §1, §2
Data set [3] is described as follows: Bacteriocin stability at different temperatures and pH values. The format is physicochemical. As for the experimental part: Either using crude, partially or completely purified form, the chemical characteristics of the bacteriocins can be determined. The determined characteristics include their sensitivities to different enzymes, stability at different temperatures and pH values, etc. Sensitivity of the bacteriocin to proteolytic and lipolytic enzymes, such as trypsin, pepsin, pronase, lipase, etc, was tested. The proteinaceus nature of GP15cin was confirmed. […] The same bacteriocin has optimal activity in the pH range of 4-10.

For data set [4], the system named is indigenous contaminating bacteria in ethanol fermentation mash. Briefly: Reduction of indigenous contaminating bacterial level in fermentation mash from commercial ethanol plants. In kind it is cell-based. As to conditions: crude form. As for the experimental part:
The inhibitory activity spectrum of GP15cin against different strains was determined. The active concentration range and the minimum inhibition concentration of the bacteriocin are determined using different indicator strains. The activity levels of the bacteriocin present in the raw bacterial culture supernatants and/or in partially purified mixtures were also determined. […] FIG. 2 to FIG. 11 show the effectiveness of GP15cin in reducing the total levels of indigenous bacteria presented in fermentation mash from different commercial ethanol plants. The exact identities of the indigenous bacteria population in different plants are unknown and are likely highly diverse.
GP15cin described herein were produced by a L. plantarum strain, which was isolated from the indigenous LAB populations present during commercial ethanol fermentation. GP15cin can act towards species and/or strains of similar indigenous LAB populations and thus can be used as an effective control for contaminating LAB. […] Either fermentor or mash cooler mash samples were collected from 6 different commercial ethanol plants on 13 different days from 2012 to 2014. Results of 15 independent tests are shown. […] It is likely that the effects on controlling contaminating bacteria and acids will be even more significant if a higher dose of GP5cin is used. […]

For a further data set, the system named is contaminating LAB. Briefly: Lactic and acetic acid levels in laboratory-scale ethanol fermentation. In kind it is cell-based. The text has this: GP15cin described herein were produced by a L. plantarum strain, which was isolated from the indigenous LAB populations present during commercial ethanol fermentation. GP15cin can act towards species and/or strains of similar indigenous LAB populations and thus can be used as an effective control for contaminating LAB. […] Either fermentor or mash cooler mash samples were collected from 6 different commercial ethanol plants on 13 different days from 2012 to 2014. Results of 15 independent tests are shown. […] It is likely that the effects on controlling contaminating bacteria and acids will be even more significant if a higher dose of […] is used. The presented results highlight the feasibility of GP15cin application for control of unwanted bacteria in ethanol and other biofuel industries.

For data set [5], the system named is production host Lactobacillus plantarum GP15. Briefly: Activity against own production host. The format is cell-based. The text has this: As noted above, GP-15cin may be applied alone or in combination with other bacteriocin and/or bacteriophage virulent for unwanted bacteria in the same system. Bacteriocin producing hosts are immune to the bacteriocins produced by themselves. GP-15cin is therefore not active against its own production host, GP15cin. […] Therefore, it is desirable to combine GP-15cin with a different bacteriocin in a cocktail that will kill the bacteria insensitive to GP15cin. Additionally, GP-15cin may be combined with other antimicrobial agents to broaden the scope of effectiveness against the range of unwanted bacteria that are targeted. For example, the combination of bacteriocin and bacteriophage (phage) ensures a broader inhibition spectrum and more efficient control of the bacteria contamination. Phage targeting these non-sensitive strains can be isolated, and be combined with the bacteriocin for a complete control of contaminating bacteria.

Data set [6] concerns Lactobacillus fermentum strain 0315-25. Briefly: Batch culture growth inhibition, bacteriocin and/or phage, growth monitored 24 h. In kind it is cell-based. As for the experimental part: Bacteriocin alone, bacteriophage alone, and bacteriocin combined with phage were tested against Lactobacillus in batch culture systems. To be specific, logarithmic growth phase cultures of Lactobacillus fermentum strain 0315-25 (OD600 being 0.1) were treated either with single agent at different doses, such as bacteriocin GP15cin alone at different doses (0.1%, 1%, and 10%, v/v), or a phage designated herein as LferInf alone at different MOIs (0.1, 1, and 10), or two agents combined together at different doses, such as 0.1% GP15cin plus LferInf at MOI of 0.1, 0.1% GP15cin plus phage LferInf at MOI of 1, 1% GP15cin plus LferInf at MOI of 0.1, and 1% GP15cin plus phage LferInf at MOI of 1. Culture without any treatment was served as control. LferInf is a bacteriophage isolated from wastewater and found to be effective against a broad host range of Lactobacillus and described in more detail below. The growth of bacteria was monitored for 24 h, and the treatment effects were compared.

Entries after “also recorded” stand apart in the source; their conditions may differ. Some results are limits rather than exact numbers.

As to plantaricin W [GP15cin], the “killing activity against LAB isolates” value in data set [1] is on record as “broad range killing activity; also recorded: extremely broad killing spectrum”. Moreover, the “killing activity against non-LAB isolates” value in data set [2] was “showed killing activity”. The “pH range of optimal activity” value in data set [3] is 4-10 pH. Also, the “loss of activity (heat resistance)” value in data set [3] (after 2 hours at 120° C.) is reported as “not a complete loss of activity”. The loss of activity entry in data set [3] (pH 12) is given as “complete loss of activity”. The reduction in activity in data set [3] (pH values of 1, 2, 3, and 11) was 50%; in data set [3] (temperature of 120° C.), 87.5%; in data set [3] (temperatures of 65-100° C.), 50%. The “time in which the reduction effect was seen” value in data set [4] was not below 2 h. In addition, the “reduction of indigenous contaminating bacteria levels” value in data set [4] (mash samples from 6 plants, 15 independent tests) is on record as “consistent reduction effects seen in all tests; also recorded: reduced indigenous contaminating bacteria levels in all mash samples”. The “lactic acid and acetic acid levels produced by contaminating LAB” value with contaminating LAB was “significantly reduced”. In data set [5], the “activity against own production host” value is reported as “not active”. Also, the “growth of L. fermentum” value is given as “all treatment, except GP15cin used at 0.1%, suppressed the growth” in data set [6] (GP15cin alone 0.1% v/v); “suppressed the growth” in data set [6] (GP15cin alone 1% v/v); “suppressed the growth” in data set [6] (GP15cin alone 10% v/v).

Source of the values: patent US20180014546A1, “Broad Spectrum Bacteriocin for Control of Unwanted Bacteria” (priority 2013, published 2018).
